In series [1] the test system is wild-type M. tuberculosis. The series can be described thus: microbe, parasite or virus in culture. The series is classed as cell-based, Mycobacterium tuberculosis.
A further series in a line: in vitro. The series is classed as in vitro ADME, human. Conditions: for microsomal clearance / stability (in words): human microsomes; for CLint scaled at 0.5 µM: human, microsomes, pH 7.4, human Clint. Here is the method: Compounds (0.5 µM) were incubated with 0.25 mg/mL liver microsomal proteins at pH 7.4 at 37 °C. Reactions were initiated with […] and samples taken at 0, 5, 10, 15, 20 and 30 min. The reaction was stopped by addition of 95% ACN/5% MeOH containing an internal standard. Samples were combined in compound groups of six pre-sorted by mono molecular weight and analyzed by LC/MS/MS. The peak area ratios (analyte peak area/IS peak area) were converted to % remaining using the area ratio at time 0 as 100%. The. half-life (T ½) and intrinsic clearance (mCLint) were calculated.

Where [2] appears, read: Mycobacterium tuberculosis, 120 h, read-out: MIC.
The mark [3] stands for this setting: Mycobacterium tuberculosis, read-out: MIC.

Experimental findings from article PMC9435431, “Novel chemical entities inhibiting Mycobacterium tuberculosis growth identified by phenotypic high-throughput screening” (Scientific Reports, 2022) are described below.

Converted amounts (≈) assume the structure as drawn. Read-outs that look alike come from different tables or passages of the source.

Take `CC(C)(C)CC(C)(C)N1CCC(c2ccc(C(C)(C)C)cc2)CC1` [Molecule 4PP-43, 4-(4-t-Butyl-phenyl)-1-(1,1,3,3-tetramethyl-butyl)-piperidine]: the MIC in series [1] was 5.2 ± 1.9 µM (≈ 1.71 µg/mL); in series [1] (setting [2]), 5.9 µM (≈ 1.94 µg/mL).
`CC(C)(C)CC(C)(C)N1CCC(c2ccccc2)CC1` [Molecule 4PP-44, 4-Phenyl-1-(1,1,3,3-tetramethyl-butyl)-piperidine]: the IC90 (usually the concentration at which the effect reaches the 90% level) in series [1] (Mycobacterium tuberculosis) worked out at 5.2 µM. In addition, the values for the MIC in series [1] (setting [2]) and in series [1] (setting [3]) were 5.2 ± 5 µM (≈ 1.42 µg/mL) and 5.2 µM (≈ 1.42 µg/mL), respectively.
As for `CC(C)(C)CC(C)(C)N1CC=C(c2c[nH]c3ncccc23)CC1` [Molecule 4PP-45, 3-(1-(2,4,4-Trimethylpentan-2-yl)-1,2,3,6-tetrahydropyridin-4-yl)-1H-pyrrolo[2,3-b]pyridine], the “anti-tubercular activity (in words)” value in series [1] was “inactive”. Moreover, in series [1] (setting [2]), the MIC is above 20 µM.
On the same counts, the results for `CC(C)(C)CC(C)(C)N1CCC(c2c[nH]c3ncccc23)CC1` [Molecule 4PP-46, 3-(1-(2,4,4-Trimethylpentan-2-yl)piperidin-4-yl)-1H-pyrrolo[2,3-b]pyridine] are “inactive” and above 20 µM.
Turning to `CC(C)(C)CC(C)(C)N1CC=C(c2c[nH]c3ccccc23)CC1` [Molecule 4PP-47, 3-(1-(2,4,4-Trimethylpentan-2-yl)-1,2,3,6-tetrahydropyridin-4-yl)-1H-indole], the results for the MIC in series [1] (setting [2]) and in series [1] (setting [3]) were 9.6 ± 2.2 µM (≈ 2.98 µg/mL) and 9.6 µM (≈ 2.98 µg/mL), respectively.
On to `CC(C)(C)CC(C)(C)N1CCC(c2c[nH]c3ccccc23)CC1` [Molecule 4PP-48, 3-(1-(2,4,4-Trimethylpentan-2-yl)piperidin-4-yl)-1H-indole], for which the MIC in series [1] (setting [2]) and in series [1] (setting [3]) was 1.6 µM (≈ 0.5 µg/mL) in each case.
As to `CC(C)(C)CC(C)(C)N1CCN(c2ccc(C(C)(C)C)cc2)CC1` [Molecule 4PP-49, 1-(4-(t-Butyl)phenyl)-4-(2,4,4-trimethylpentan-2-yl)piperazine], the “anti-tubercular activity (in words)” value in series [1] was “loss in activity”. Moreover, the MIC in series [1] (setting [2]) is above 5 µM.
With `CC(C)(C)CC(C)(C)N1CCN(c2ccccc2)CC1` [Molecule 4PP-50, 1-Phenyl-4-(2,4,4-trimethylpentan-2-yl)piperazine], the “anti-tubercular activity (in words)” value in series [1] is on record as “loss in activity”. Also, the MIC in series [1] (setting [2]) is above 10 µM.
`FC1CN(CC2CCCCC2)CCC1c1ccccc1.O=C(O)C(F)(F)F` (stereo not shown) [Molecule 4PP-51, 1-(Cyclohexylmethyl)-3-fluoro-4-phenyl-piperidine; 2,2,2-trifluoroacetic acid]: the “anti-tubercular activity (in words)” value in series [1] is reported as “not tolerated”. The MIC in series [1] (setting [2]) is above 20 µM.
Take `FC1CN(CC2CCCCC2)CCC1c1ccc(Cl)cc1.O=C(O)C(F)(F)F` (stereo not shown) [Molecule 4PP-52, 4-(4-Chlorophenyl)-1-(cyclohexylmethyl)-3-fluoro-piperidine; 2,2,2-trifluoroacetic acid]: the “anti-tubercular activity (in words)” value in series [1] is listed as “not tolerated”. The MIC in series [1] (setting [2]) is above 20 µM.
Consider `COc1ccc(C2CCN(CC3CCCCC3)CC2F)cc1.O=C(O)C(F)(F)F` (stereo not shown) [Molecule 4PP-53, 1-(Cyclohexylmethyl)-3-fluoro-4-(4-methoxyphenyl)piperidine; 2,2,2-trifluoroacetic acid], for which, in series [1], the “anti-tubercular activity (in words)” value is recorded as “not tolerated”. Also, the MIC in series [1] (setting [2]) is above 20 µM.
For the compound `COc1cc(CCNC(=O)C2(c3ccccc3)CCC2)ccc1O` [PCB-3, N-(4-hydroxy-3-methoxyphenethyl)-1-phenylcyclobutane-1-carboxamide], the MIC in series [1] (setting [2]) was above 20 µM. Further, the MIC in series [1] (setting [3]) is above 20 µM. In the series “in vitro”, the “microsomal clearance / stability (in words)” value is on record as “clearance was improved” and the CLint scaled (in general, the capacity of the preparation to metabolise the compound, expressed as a volume cleared per time) at 0.5 µM was 208 mL/min/kg.
In the case of `O=C(NCCc1ccc2c(c1)OCO2)C1(c2ccccc2)CCC1` [PCB-4, N-(2-(benzo[d][1,3]dioxol-5-yl)ethyl)-1-phenylcyclobutane-1-carboxamide], the “anti-tubercular activity (in words)” value in series [1] was “retained anti-tubercular activity”. Moreover, the MIC in series [1] (setting [2]) turned out to be 12 ± 2.6 µM (≈ 3.88 µg/mL). Moreover, in “in vitro”, the “microsomal clearance / stability (in words)” value is “intermediate clearance” and the CLint scaled at 0.5 µM was 868 mL/min/kg.
`O=C(NCCc1cccc(Br)c1)C1(c2ccccc2)CCC1` [PCB-5, N-(3-bromophenethyl)-1-phenylcyclobutane-1-carboxamide]: the MIC worked out at 4.9 ± 1.7 µM (≈ 1.76 µg/mL) in series [1] (setting [2]) and 4.9 µM (≈ 1.76 µg/mL) in series [1] (setting [3]). Also, the CLint scaled at 0.5 µM in “in vitro” is 3930 mL/min/kg.
Consider `O=C(NCCc1ccc(Br)cc1)C1(c2ccccc2)CCC1` [PCB-6, N-(4-bromophenethyl)-1-phenylcyclobutane-1-carboxamide], for which the MIC came to 5.4 ± 0.3 µM (≈ 1.93 µg/mL) in series [1] (setting [2]) and 5.4 µM (≈ 1.93 µg/mL) in series [1] (setting [3]). In “in vitro”, this compound gave a CLint scaled at 0.5 µM of 593 mL/min/kg.
In the case of `O=C(NCCc1cccc(C(F)(F)F)c1)C1(c2ccccc2)CCC1` [PCB-7, 1-phenyl-N-(3-(trifluoromethyl)phenethyl)cyclobutane-1-carboxamide], the MIC stood at 3.7 ± 2.7 µM (≈ 1.29 µg/mL) in series [1] (setting [2]) and 3.7 µM (≈ 1.29 µg/mL) in series [1] (setting [3]). Also, in the series “in vitro”, the “microsomal clearance / stability (in words)” value is listed as “increased clearance”. In the series “in vitro”, the CLint scaled at 0.5 µM is 4500 mL/min/kg.
`O=C(NCCc1cc(Br)ccn1)C1(c2ccccc2)CCC1` [PCB-8, N-(2-(4-bromopyridin-2-yl)ethyl)-1-phenylcyclobutane-1-carboxamide]: the MIC in series [1] (setting [2]) and in series [1] (setting [3]) was above 20 µM each time. In addition, the “microsomal clearance / stability (in words)” value in the series “in vitro” is “improved clearance”. Besides, in the series “in vitro”, the CLint scaled at 0.5 µM is 1160 mL/min/kg.
Take `O=C(N[C@H]1CCc2ccc(Br)cc2C1)C1(c2ccccc2)CCC1` [PCB-9, (S)-N-(7-bromo-1,2,3,4-tetrahydronaphthalen-2-yl)-1-phenylcyclobutane-1-carboxamide]: the MIC is 6.9 ± 2.9 µM (≈ 2.65 µg/mL) in series [1] (setting [2]) and 6.9 µM (≈ 2.65 µg/mL) in series [1] (setting [3]). For the same compound, the “microsomal clearance / stability (in words)” value in “in vitro” is “increased microsomal clearance”. Also, in the series “in vitro”, the CLint scaled at 0.5 µM was 4550 mL/min/kg.
With `O=C(Nc1ncc2c(Br)cccc2n1)C1(c2ccccc2)CCC1` [PCB-10, N-(5-bromoquinazolin-2-yl)-1-phenylcyclobutane-1-carboxamide], the MIC stood at 9.3 ± 1 µM (≈ 3.56 µg/mL) in series [1] (setting [2]) and 9.3 µM (≈ 3.56 µg/mL) in series [1] (setting [3]). Besides, the “microsomal clearance / stability (in words)” value in the series “in vitro” is recorded as “reasonable clearance”. For the same compound, the CLint scaled at 0.5 µM in the series “in vitro” is 240 mL/min/kg.
For `O=C(NCC(O)c1ccc2c(c1)OCO2)C1(c2ccccc2)CCC1` (stereo not shown) [PCB-11, N-(2-(benzo[d][1,3]dioxol-5-yl)-2-hydroxyethyl)-1-phenylcyclobutane-1-carboxamide] the same measures were above 20 µM, above 20 µM, “lower clearance” and 161 mL/min/kg.
As to `O=C(CNC(=O)C1(c2ccccc2)CCC1)c1cccc(Br)c1` [PCB-12, N-(2-(3-bromophenyl)-2-oxoethyl)-1-phenylcyclobutane-1-carboxamide], in series [1], the “anti-tubercular activity (in words)” value is “tolerated”. Moreover, the MIC in series [1] (setting [2]) turned out to be 7.3 ± 0.3 µM (≈ 2.72 µg/mL). In addition, in “in vitro”, the “microsomal clearance / stability (in words)” value is recorded as “did not improve clearance” and the CLint scaled at 0.5 µM is 788 mL/min/kg.
On the same counts, the results for `Brc1cccc(-c2nc(C3(c4ccccc4)CCC3)no2)c1` [PCB-13, 5-(3-bromophenyl)-3-(1-phenylcyclobutyl)-1,2,4-oxadiazole] are “loss of activity”, above 20 µM, “high clearance” and 4430 mL/min/kg.
Regarding `COc1ccc(-c2cc(N)nc(-n3nc(C)cc3C)n2)cc1` [PZP-1], the 90% effect level in series [1] (Mycobacterium tuberculosis) (IC90) was put at 5.2 µM.
`Cc1cc(C)n(-c2nc(N)cc(-c3cccc(F)c3)n2)n1` [PZP-2] came in with an IC90 in series [1] (Mycobacterium tuberculosis) of 7.4 µM. This IC90 and that of the compound before are within 1.5-fold of each other.
